For orientation: Ki means the dissociation constant of the complex between target and ligand, obtained from inhibition or displacement.

The first assay has as its target T1, hA1 (Homo sapiens, UniProt P30542).
T1 sequence (P30542 1-326): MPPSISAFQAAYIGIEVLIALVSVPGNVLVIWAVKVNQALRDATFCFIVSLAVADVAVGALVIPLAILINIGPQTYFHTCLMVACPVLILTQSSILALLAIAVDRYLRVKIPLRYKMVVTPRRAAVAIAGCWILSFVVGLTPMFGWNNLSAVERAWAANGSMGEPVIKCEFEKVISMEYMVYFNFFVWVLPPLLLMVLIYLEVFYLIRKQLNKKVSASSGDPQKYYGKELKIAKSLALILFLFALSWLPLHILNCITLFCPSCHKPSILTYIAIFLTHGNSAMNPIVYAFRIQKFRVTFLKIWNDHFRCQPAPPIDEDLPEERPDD
The assay is described as follows: hA1 receptor affinity (Ki). The class given is binding. The note with it: list of examples 10-108.
`COCC1CCCN1C(=O)c1cc(N)c2nc(-c3ccc(Br)o3)nn2c1` (stereo in doubt) [Example 17, [8-Amino-2-(5-bromo-furan-2-yl)-[1,2,4]triazolo[1,5-a]pyridin-6-yl]-((S)-2-methoxymethyl-pyrrolidin-1-yl)-methanone] returned a Ki of 1230 nM.

The target in another assay is T2, human adenosine A2A receptor (Homo sapiens, UniProt P29274).
T2 construct: expressed in transfected cells; host or cells: CHO cells, semliki forest virus expression system; washed membranes
T2 sequence (P29274 whole entry): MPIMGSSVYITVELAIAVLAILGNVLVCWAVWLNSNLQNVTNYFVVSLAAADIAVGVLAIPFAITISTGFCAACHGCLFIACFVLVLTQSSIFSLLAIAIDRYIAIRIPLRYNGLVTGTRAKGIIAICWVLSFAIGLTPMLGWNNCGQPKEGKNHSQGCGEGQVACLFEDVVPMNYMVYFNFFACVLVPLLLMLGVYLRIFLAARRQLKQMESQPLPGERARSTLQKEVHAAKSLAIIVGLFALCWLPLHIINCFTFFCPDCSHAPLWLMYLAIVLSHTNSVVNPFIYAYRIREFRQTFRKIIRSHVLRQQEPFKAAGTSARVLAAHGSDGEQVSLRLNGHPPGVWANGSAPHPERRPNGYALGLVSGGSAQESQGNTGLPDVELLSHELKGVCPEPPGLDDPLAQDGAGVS
Briefly: [3H]-SCH-58261 binding assay, human adenosine A2A receptor (CHO cell membranes, SPA). The note with it: [3H]-SCH-58261 displacement; list of examples 10-108; read-out: hA2a Ki. As for the experimental part:
Human Adenosine A2A Receptor
The human adenosine A2A receptor was recombinantly expressed in chinese hamster ovary (CHO) cells using the semliki forest virus expression system. Cells were harvested, washed twice by centrifugation, homogenized and again washed by centrifugation. The final washed membrane pellet was suspended in a Tris (50 mM) buffer containing 120 mM NaCl, 5 mM KCl, 2 mM CaCl2 and 10 mM MgCl2 (pH 7.4) (buffer A). […] Compounds were tested at 10 concentrations from 10 μM-0.3 nM. All assays were conducted in duplicate and repeated at least two times. Assay plates were incubated for 1 hour at room temperature before centrifugation and then bound ligand determined using a Packard Topcount scintillation counter. IC50 values were calculated using a non-linear curve fitting program and Ki values calculated using the Cheng-Prussoff equation.
Take `CC1CCCN1C(=O)c1cc(N)c2nc(-c3ccccc3)nn2c1` (stereo not drawn) [Example 70, (8-Amino-2-phenyl-[1,2,4]triazolo[1,5-a]pyridin-6-yl)-(2-methyl-pyrrolidin-1-yl)-methanone]: the Ki is 145 nM.
Still for that read-out and setting: to `CCCCN(C)C(=O)c1cc(N)c2nc(-c3ccccc3)nn2c1` [Example 71, 8-Amino-2-phenyl-[1,2,4]triazolo[1,5-a]pyridine-6-carboxylic acid methyl-butyl-amide] belongs 484 nM; to `CC1CCCCN1C(=O)c1cc(N)c2nc(-c3ccccc3)nn2c1` (stereo not drawn) [Example 72, (8-Amino-2-phenyl-[1,2,4]triazolo[1,5-a]pyridin-6-yl)-(2-methyl-piperidin-1-yl)-methanone], 361 nM; to `CCN(CC)C(=O)C1CCCN(C(=O)c2cc(N)c3nc(-c4ccccc4)nn3c2)C1` (stereo not drawn) [Example 73, 1-(8-Amino-2-phenyl-[1,2,4]triazolo[1,5-a]pyridine-6-carbonyl)-piperidine-3-carboxylic acid diethylamide], 998 nM.
On the same count and under the same terms, then `COC[C@@H]1CCCN1C(=O)c1cc(N)c2nc(-c3ccccc3)nn2c1` [Example 74, (8-Amino-2-phenyl-[1,2,4]triazolo[1,5-a]pyridin-6-yl)-(2-methoxymethyl-pyrrolidin-1-yl)-methanone], with 196 nM.
The same measure, in the same setting: then `CN(C)C(=O)[C@@H]1CCCN1C(=O)c1cc(N)c2nc(-c3ccccc3)nn2c1` [Example 76, 1-(8-Amino-2-phenyl-[1,2,4]triazolo[1,5-a]pyridine-6-carbonyl)-pyrrolidine-2-carboxylic acid dimethylamide], with 420 nM; and `CN(C)C(=O)CN(C)C(=O)c1cc(N)c2nc(-c3ccccc3)nn2c1` [Example 77, 8-Amino-2-phenyl-[1,2,4]triazolo[1,5-a]pyridine-6-carboxylic acid dimethylcarbamoyl-methyl-methyl-amide], with 674 nM.
Turning to `CC1CCCN(C(=O)c2cc(N)c3nc(-c4ccccc4)nn3c2)C1` (stereo not drawn) [Example 78, (8-Amino-2-phenyl-[1,2,4]triazolo[1,5-a]pyridin-6-yl)-(3-methyl-piperidin-1-yl)-methanone], the Ki turned out to be 385 nM.
Same read-out and setting: to `CCCN(C)C(=O)c1cc(N)c2nc(-c3ccccc3)nn2c1` [Example 79, 8-Amino-2-phenyl-[1,2,4]triazolo[1,5-a]pyridine-6-carboxylic acid methyl-propyl-amide] belongs 886 nM; to `Nc1cc(C(=O)N2CC=CCC2)cn2nc(-c3ccccc3)nc12` [Example 80, (8-Amino-2-phenyl-[1,2,4]triazolo[1,5-a]pyridin-6-yl)-(3,6-dihydro-2H-pyridin-1-yl)-methanone], 289 nM; to `CN(CCc1ccccc1)C(=O)c1cc(N)c2nc(-c3ccccc3)nn2c1` [Example 81, 8-Amino-2-phenyl-[1,2,4]triazolo[1,5-a]pyridine-6-carboxylic acid methyl-phenethyl-amide], 524 nM.
On the same count and under the same terms, to `CCN(CC)C(=O)c1cc(N)c2nc(-c3ccc(C)o3)nn2c1` [Example 82, 8-Amino-2-(5-methyl-furan-2-yl)-[1,2,4]triazolo[1,5-a]pyridine-6-carboxylic acid diethylamide] belongs 131 nM.
The same measure, in the same setting: to `CCN(CCOC)C(=O)c1cc(N)c2nc(-c3ccc(C)o3)nn2c1` [Example 87, 8-Amino-2-(5-methyl-furan-2-yl)-[1,2,4]triazolo[1,5-a]pyridine-6-carboxylic acid ethyl-(2-methoxy-ethyl)-amide] belongs 104 nM; to `CCCN(C)C(=O)c1cc(N)c2nc(-c3ccc(C)o3)nn2c1` [Example 89, 8-Amino-2-(5-methyl-furan-2-yl)-[1,2,4]triazolo[1,5-a]pyridine-6-carboxylic acid methyl-propyl-amide], 178 nM.
Take `Cc1ccc(-c2nc3c(N)cc(C(=O)N4CCSCC4)cn3n2)o1` [Example 90, [8-Amino-2-(5-methyl-furan-2-yl)-[1,2,4]triazolo[1,5-a]pyridin-6-yl]-thiomorpholin-4-yl-methanone]: the Ki was found to be 140 nM.
Consider `Cc1ccc(-c2nc3c(N)cc(C(=O)N(C)CCc4ccccc4)cn3n2)o1` [Example 91, 8-Amino-2-(5-methyl-furan-2-yl)-[1,2,4]triazolo[1,5-a]pyridine-6-carboxylic acid methyl-phenethyl-amide], for which the Ki was 112 nM.
`Cc1ccc(-c2nc3c(N)cc(C(=O)N4CC(C)OC(C)C4)cn3n2)o1` (stereo not drawn) [Example 92, [8-Amino-2-(5-methyl-furan-2-yl)-[1,2,4]triazolo[1,5-a]pyridin-6-yl]-(2,6-dimethyl-morpholin-4-yl)-methanone]: the Ki came out at 249 nM.
On the same count and under the same terms, then `CCN(CC)C(=O)c1cc(N)c2nc(-c3ccc(C)s3)nn2c1` [Example 93, 8-Amino-2-(5-methyl-thiophen-2-yl)-[1,2,4]triazolo[1,5-a]pyridine-6-carboxylic acid diethylamide], with 322 nM.
The same measure, in the same setting: to `Cc1ccc(-c2nc3c(N)cc(C(=O)N4CCCC4)cn3n2)s1` [Example 94, [8-Amino-2-(5-methyl-thiophen-2-yl)-[1,2,4]triazolo[1,5-a]pyridin-6-yl]-pyrrolidin-1-yl-methanone] belongs 213 nM; to `Cc1ccc(-c2nc3c(N)cc(C(=O)N4CCCCC4)cn3n2)s1` [Example 95, [8-Amino-2-(5-methyl-thiophen-2-yl)-[1,2,4]triazolo[1,5-a]pyridin-6-yl]-piperidin-1-yl-methanone], 225 nM.
Same read-out and setting: then `Cc1ccc(-c2nc3c(N)cc(C(=O)N4CCCC4C)cn3n2)s1` (stereo not drawn) [Example 96, [8-Amino-2-(5-methyl-thiophen-2-yl)-[1,2,4]triazolo[1,5-a]pyridin-6-yl]-(2-methyl-pyrrolidin-1-yl)-methanone], with 154 nM; and `Cc1ccc(-c2nc3c(N)cc(C(=O)N(C)CC(=O)N(C)C)cn3n2)s1` [Example 98, 8-Amino-2-(5-methyl-thiophen-2-yl)-[1,2,4]triazolo[1,5-a]pyridine-6-carboxylic acid dimethylcarbamoyl-methyl-methyl-amide], with 220 nM.
For `CCN(CCOC)C(=O)c1cc(N)c2nc(-c3ccc(C)s3)nn2c1` [Example 99, 8-Amino-2-(5-methyl-thiophen-2-yl)-[1,2,4]triazolo[1,5-a]pyridine-6-carboxylic acid ethyl-(2-methoxy-ethyl)-amide], the Ki amounted to 238 nM.
Still for that read-out and setting: to `Cc1ccc(-c2nc3c(N)cc(C(=O)N4CCCC(C)C4)cn3n2)s1` (stereo not drawn) [Example 100, [8-Amino-2-(5-methyl-thiophen-2-yl)-[1,2,4]triazolo[1,5-a]pyridin-6-yl]-(3-methyl-piperidin-1-yl)-methanone] belongs 178 nM; to `CCCN(C)C(=O)c1cc(N)c2nc(-c3ccc(C)s3)nn2c1` [Example 101, 8-Amino-2-(5-methyl-thiophen-2-yl)-[1,2,4]triazolo[1,5-a]pyridine-6-carboxylic acid methyl-propyl-amide], 228 nM; to `Cc1ccc(-c2nc3c(N)cc(C(=O)N4CCSCC4)cn3n2)s1` [Example 102, [8-Amino-2-(5-methyl-thiophen-2-yl)-[1,2,4]triazolo[1,5-a]pyridin-6-yl]-thiomorpholin-4-yl-methanone], 478 nM.
Still for that read-out and setting: to `Cc1ccc(-c2nc3c(N)cc(C(=O)N(C)CCc4ccccc4)cn3n2)s1` [Example 103, 8-Amino-2-(5-methyl-thiophen-2-yl)-[1,2,4]triazolo[1,5-a]pyridine-6-carboxylic acid methyl-phenethyl-amide] belongs 309 nM; to `Nc1cc(C(=O)N2CCCC2)cn2nc(-c3nccs3)nc12` [Example 104, (8-Amino-2-thiazol-2-yl-[1,2,4]triazolo[1,5-a]pyridin-6-yl)-pyrrolidin-1-yl-methanone], 564 nM; to `CC1CCCN1C(=O)c1cc(N)c2nc(-c3nccs3)nn2c1` (stereo not drawn) [Example 105, (8-Amino-2-thiazol-2-yl-[1,2,4]triazolo[1,5-a]pyridin-6-yl)-(2-methyl-pyrrolidin-1-yl)-methanone], 654 nM.
The same measure, in the same setting: then `CCCCN(C)C(=O)c1cc(N)c2nc(-c3nccs3)nn2c1` [Example 106, 8-Amino-2-thiazol-2-yl-[1,2,4]triazolo[1,5-a]pyridine-6-carboxylic acid butyl-methyl-amide], with 844 nM; and `CC1CCCN(C(=O)c2cc(N)c3nc(-c4nccs4)nn3c2)C1` (stereo not drawn) [Example 107, (8-Amino-2-thiazol-2-yl-[1,2,4]triazolo[1,5-a]pyridin-6-yl)-(3-methyl-piperidin-1-yl)-methanone], with 632 nM; and `CN(CCc1ccccc1)C(=O)c1cc(N)c2nc(-c3nccs3)nn2c1` [Example 108, 8-Amino-2-thiazol-2-yl-[1,2,4]triazolo[1,5-a]pyridine-6-carboxylic acid methyl-phenethyl-amide], with 988 nM.

Source of the values: patent US6689790B2, “Substituted triazolopyridine compounds” (Hoffmann-La Roche Inc., priority 2001, dated 2004).
